Calls of active or inactive are those of the source.
Legend:
[1] = target: T1, Corticotropin-releasing factor receptor 2/Corticotropin-releasing factor-binding protein (Homo sapiens, UniProt P24387+Q13324); assay: Dose Response confirmation of uHTS hits for small molecule antagonists of the CRF-binding protein and CRF-R2 receptor complex.; assay type: functional; details: read-out: IC50_Mean
T1 sequence (Q13324 whole entry): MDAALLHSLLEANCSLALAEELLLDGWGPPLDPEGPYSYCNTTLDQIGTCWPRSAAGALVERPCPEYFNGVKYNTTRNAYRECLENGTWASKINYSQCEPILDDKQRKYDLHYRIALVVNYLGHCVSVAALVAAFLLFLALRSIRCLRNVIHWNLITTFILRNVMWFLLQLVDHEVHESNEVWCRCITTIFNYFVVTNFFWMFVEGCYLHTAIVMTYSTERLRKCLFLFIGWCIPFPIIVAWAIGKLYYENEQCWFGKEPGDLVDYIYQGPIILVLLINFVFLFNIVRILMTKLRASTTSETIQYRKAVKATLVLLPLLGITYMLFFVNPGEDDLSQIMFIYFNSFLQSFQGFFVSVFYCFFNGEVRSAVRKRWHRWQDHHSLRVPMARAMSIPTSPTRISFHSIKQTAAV
T1 sequence (P24387 whole entry): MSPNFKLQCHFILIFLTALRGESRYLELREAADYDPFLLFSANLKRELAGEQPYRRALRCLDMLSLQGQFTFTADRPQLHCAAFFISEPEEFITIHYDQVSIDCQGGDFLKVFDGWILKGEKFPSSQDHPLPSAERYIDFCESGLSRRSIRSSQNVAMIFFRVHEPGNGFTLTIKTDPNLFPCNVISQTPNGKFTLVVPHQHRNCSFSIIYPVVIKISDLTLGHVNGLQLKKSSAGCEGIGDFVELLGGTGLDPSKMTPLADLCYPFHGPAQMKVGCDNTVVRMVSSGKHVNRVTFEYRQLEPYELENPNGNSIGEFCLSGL

[2] = CRF-BP/CRF-R2 complex antagonists, dose response, cell-based, uHTS hits, 384-well (AID 651639); assay type: functional, Homo sapiens; details: read-out: IC50_Mean
[3] = target: T1, Corticotropin-releasing factor receptor 2/Corticotropin-releasing factor-binding protein; assay: activators of CRF receptor 2 with binding protein – uHTS hits, confirmation (AID 602473); assay type: functional; details: read-out: EC50_Mean
[4] = target: Disintegrin and metalloproteinase domain-containing protein 17 (Homo sapiens, UniProt P78536); assay: exosite inhibitors of ADAM17, dose response, biochemical (AID 743260)
[5] = ADAM10 protease inhibitors, dose response, selectivity assay for ADAM17 exosite inhibitor project, biochemical, FRET peptide substrate, recombinant human ADAM10 (AID 743259);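 note: ADAM10 enzyme cleaving a FRET peptide substrate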
[6] = system: Streptococcus sp. 'group A'; assay: growth inhibition of control SK(-) GAS strain, dose response, counter-screen for streptokinase expression inhibitor project, luminescence, kanamycin, BacTiterGlo, confirmation (AID 1900); assay type: functional, organism-based
Streptococcus = assay: Group A Streptococcus viability loss, dose response, counter-screen for streptokinase expression inhibitor project, luminescence, BacTiterGlo (AID 1915); assay type: functional, organism-based;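 note: potency for reduction of bacterial viability or growth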
[7] = target: T2, Probable nicotinate-nucleotide adenylyltransferase (Staphylococcus aureus (strain N315), UniProt P65502); assay type: functional, Staphylococcus aureus subsp. aureus N315;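 for IC50 Mean: confirmatory dose-response retesting of NadD inhibitor hits first found in an ultra-high-throughput screen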
[8] = target: T2, Probable nicotinate-nucleotide adenylyltransferase; assay type: functional, Staphylococcus aureus subsp. aureus N315; details: read-out: IC50_Mean
[9] = target: T3, Fructose-bisphosphate aldolase (Mycobacterium tuberculosis, UniProt P9WQA3); assay: Fluorescence-based biochemical high throughput dose response assay for inhibitors of the fructose-bisphosphate aldolase (FBA) of M. tuberculosis.; assay type: functional
T3 sequence (P9WQA3 whole entry): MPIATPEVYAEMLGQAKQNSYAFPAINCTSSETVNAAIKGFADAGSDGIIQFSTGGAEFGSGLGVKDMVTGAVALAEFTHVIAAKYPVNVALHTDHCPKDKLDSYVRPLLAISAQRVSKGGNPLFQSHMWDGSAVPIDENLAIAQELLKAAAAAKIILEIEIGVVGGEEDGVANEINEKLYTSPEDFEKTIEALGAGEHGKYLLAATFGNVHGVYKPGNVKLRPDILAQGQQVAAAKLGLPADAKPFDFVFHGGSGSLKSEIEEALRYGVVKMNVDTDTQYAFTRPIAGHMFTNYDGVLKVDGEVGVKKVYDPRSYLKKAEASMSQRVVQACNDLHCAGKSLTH

Beta-lactamase [10] = target: T4, Beta-lactamase (Pseudomonas aeruginosa, UniProt Q79MP6); assay: IMP-1 metallo-beta-lactamase inhibitors, dose response, selectivity assay for VIM-2 inhibitor project, biochemical, epi-absorbance (AID 1920)
Beta-lactamase [11] = target: Beta-lactamase (Salmonella choleraesuis (strain SC-B67), UniProt Q5J463); assay: Epi-absorbance-based counterscreen for selective VIM-2 inhibitors: dose response biochemical high throughput screening assay to identify inhibitors of TEM-1 serine-beta-lactamase.
Streptokinase A = target: T5, Streptokinase A (Streptococcus pyogenes serotype M1, UniProt P10520); assay: S. pyogenes streptokinase expression inhibitors, potency, dose response, plasminogen activation absorbance, OD405 (AID 1914); assay type: functional, Streptococcus pyogenes M1 GAS;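 note: secreted streptokinase activity via plasminogen activation per viability signal from cell pellet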
T5 sequence (P10520 whole entry): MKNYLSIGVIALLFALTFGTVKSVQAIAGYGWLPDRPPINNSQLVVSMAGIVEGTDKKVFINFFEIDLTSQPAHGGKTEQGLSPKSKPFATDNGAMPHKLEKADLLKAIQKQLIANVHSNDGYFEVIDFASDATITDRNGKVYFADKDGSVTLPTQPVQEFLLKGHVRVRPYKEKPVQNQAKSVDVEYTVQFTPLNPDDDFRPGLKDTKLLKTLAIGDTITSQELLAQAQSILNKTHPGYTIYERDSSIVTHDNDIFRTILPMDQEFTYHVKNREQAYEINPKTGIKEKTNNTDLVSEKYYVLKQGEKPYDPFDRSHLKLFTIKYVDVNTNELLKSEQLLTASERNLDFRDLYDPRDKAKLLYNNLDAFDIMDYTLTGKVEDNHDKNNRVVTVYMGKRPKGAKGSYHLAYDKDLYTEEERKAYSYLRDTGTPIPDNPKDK

Beta-lactamase [12] = target: T4, Beta-lactamase; assay: […] counterscreen for selective VIM-2 inhibitors: dose response biochemical high throughput screening assay to identify inhibitors of IMP-1 metallo-beta-lactamase.
[13] = target: T6, RNA-binding protein pos-1 (Caenorhabditis elegans, UniProt G5EF15); assay: inhibitors of POS-1/mex-3 RNA binding, dose response, biochemical, fluorescence polarization (AID 1964);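 note: purified POS-1 fused to maltose binding protein made in E. coli; potency of compounds blocking POS-1 binding to fluorescent RNA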
T6 sequence (G5EF15 whole entry): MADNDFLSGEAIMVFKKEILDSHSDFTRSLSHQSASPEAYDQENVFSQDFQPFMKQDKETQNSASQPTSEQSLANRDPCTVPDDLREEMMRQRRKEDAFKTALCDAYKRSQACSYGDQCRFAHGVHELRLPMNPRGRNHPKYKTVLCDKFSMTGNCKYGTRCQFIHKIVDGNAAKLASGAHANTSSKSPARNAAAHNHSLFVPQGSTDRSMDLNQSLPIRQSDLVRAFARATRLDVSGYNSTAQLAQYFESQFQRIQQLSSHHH

[14] = target: T7, Zinc finger protein mex-5 (Caenorhabditis elegans, UniProt Q9XUB2); assay: MEX-5/TCR-2 RNA interaction inhibitors, dose response, biochemical, C. elegans, fluorescence polarization (AID 1960)
T7 sequence (Q9XUB2 whole entry): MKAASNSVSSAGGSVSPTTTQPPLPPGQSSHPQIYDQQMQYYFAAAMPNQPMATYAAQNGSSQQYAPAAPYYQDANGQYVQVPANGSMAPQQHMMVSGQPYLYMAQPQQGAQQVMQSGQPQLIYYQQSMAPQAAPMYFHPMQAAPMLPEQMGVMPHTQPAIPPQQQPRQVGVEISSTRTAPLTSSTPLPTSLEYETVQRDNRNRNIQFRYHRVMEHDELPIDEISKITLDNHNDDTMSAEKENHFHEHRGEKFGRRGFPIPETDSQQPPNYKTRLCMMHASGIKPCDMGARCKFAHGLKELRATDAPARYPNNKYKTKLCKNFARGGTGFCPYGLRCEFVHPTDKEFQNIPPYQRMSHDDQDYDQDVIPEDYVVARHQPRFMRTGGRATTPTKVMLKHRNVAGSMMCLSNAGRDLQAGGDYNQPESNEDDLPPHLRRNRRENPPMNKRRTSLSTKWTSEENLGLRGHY

Fatty acid synthase [15] = target: T8, Fatty acid synthase (Homo sapiens, UniProt P49327); assay: FAS thioesterase domain inhibitors, dose response, biochemical, endpoint fluorescence intensity, uHTS hits (AID 624327); assay type: functional;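 note: fluorescence from hydrolysis of an O-methyl fluorescein acyl ester substrate by the enzyme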
[16] = target: Nucleotide-binding oligomerization domain-containing protein 2 (Homo sapiens, UniProt Q9HC29); assay: NOD2 signaling inhibitors, cell-based, luminescence, uHTS, HEK293 (AID 1566); assay type: functional
HEK293 [17] = assay: cells; assay type: functional, cell-based; details: Homo sapiens
HEK293 [18] = assay: cells; assay type: functional, cell-based; details: Homo sapiens; remark: listed apart in the source
Fatty acid synthase [19] = target: T8, Fatty acid synthase; assay: FAS thioesterase domain inhibitors, dose response, biochemical, kinetic fluorescence intensity (AID 624326); assay type: functional;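 note: rate of fluorescence rise from hydrolysis of a fluorogenic O-methyl fluorescein ester substrate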
HEK293 [20] = assay: NOD1 signaling inhibitors, primary screen, cell-based, luminescence, uHTS (AID 1578); assay type: functional; details: Homo sapiens
HEK293 [21] = assay: cells; assay type: functional, cell-based; details: Homo sapiens; remark: listed apart in the source
HEK293 [22] = assay: NOD2 signaling inhibitors in MDP-stimulated cells, cell-based, uHTS, luminescence (AID 2001); assay type: functional; details: Homo sapiens
[23] = Luminescence Cell-Based Dose Retest to Confirm Inhibitors of Cancer Stem Cells. [Related pubchem assays (depositor defined):AID2717, AID2721]; assay type: functional; details: Homo sapiens
[24] = ADAM10 inhibitors, peptide cleavage, dose response, biochemical, QFRET (AID 743254);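 note: ADAM10 enzyme with the DM2 quenched FRET peptide as substrate; EDANS fluorescence gain as the protease cuts the substrate; inhibitor potency against ADAM10 proteolytic activity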
[25] = target: T9, Rac GTPase-activating protein 1 (Homo sapiens, UniProt Q9H0H5); assay: MgcRacGAP GTPase-activating activity inhibitors, confirmation, biochemical, ADP Hunter fluorescence, primary and confirmatory (AID 624330); assay type: functional
T9 sequence (Q9H0H5 whole entry): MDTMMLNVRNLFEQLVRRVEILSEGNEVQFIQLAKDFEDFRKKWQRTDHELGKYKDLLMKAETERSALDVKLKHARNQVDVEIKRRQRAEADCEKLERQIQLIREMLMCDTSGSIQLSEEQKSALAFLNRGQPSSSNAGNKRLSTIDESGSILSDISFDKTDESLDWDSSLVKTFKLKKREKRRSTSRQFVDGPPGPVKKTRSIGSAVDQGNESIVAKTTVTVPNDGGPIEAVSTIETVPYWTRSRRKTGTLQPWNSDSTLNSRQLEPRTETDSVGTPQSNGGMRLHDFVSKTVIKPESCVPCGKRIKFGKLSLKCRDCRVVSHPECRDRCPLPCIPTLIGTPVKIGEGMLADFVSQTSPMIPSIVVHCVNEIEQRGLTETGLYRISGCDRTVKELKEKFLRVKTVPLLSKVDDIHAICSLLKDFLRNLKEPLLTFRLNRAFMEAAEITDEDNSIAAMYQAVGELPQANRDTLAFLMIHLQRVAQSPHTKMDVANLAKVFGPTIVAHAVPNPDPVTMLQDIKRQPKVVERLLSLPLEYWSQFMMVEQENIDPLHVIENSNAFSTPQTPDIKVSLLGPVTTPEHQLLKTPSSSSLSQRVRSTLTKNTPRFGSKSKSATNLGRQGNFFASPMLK

[26] = ARNT/TACC3 interaction disruptors, potency, confirmation, biochemical, AlphaScreen, cherry-picked samples (AID 651703); assay type: functional, Homo sapiens;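 note: His-tagged ARNT PAS-B domain paired with GST-TACC3 E629A dimer coactivator fragment; potency of inhibitors that break up the complex and lower AlphaScreen signal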
Large T antigen = Large T antigen (Simian virus 40, UniProt P03070); assay type: functional, Betapolyomavirus macacae;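 note: Confirmatory-stage PubChem screen for compounds that inhibit SV40 T antigen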
Large T antigen, sequence (P03070 whole entry): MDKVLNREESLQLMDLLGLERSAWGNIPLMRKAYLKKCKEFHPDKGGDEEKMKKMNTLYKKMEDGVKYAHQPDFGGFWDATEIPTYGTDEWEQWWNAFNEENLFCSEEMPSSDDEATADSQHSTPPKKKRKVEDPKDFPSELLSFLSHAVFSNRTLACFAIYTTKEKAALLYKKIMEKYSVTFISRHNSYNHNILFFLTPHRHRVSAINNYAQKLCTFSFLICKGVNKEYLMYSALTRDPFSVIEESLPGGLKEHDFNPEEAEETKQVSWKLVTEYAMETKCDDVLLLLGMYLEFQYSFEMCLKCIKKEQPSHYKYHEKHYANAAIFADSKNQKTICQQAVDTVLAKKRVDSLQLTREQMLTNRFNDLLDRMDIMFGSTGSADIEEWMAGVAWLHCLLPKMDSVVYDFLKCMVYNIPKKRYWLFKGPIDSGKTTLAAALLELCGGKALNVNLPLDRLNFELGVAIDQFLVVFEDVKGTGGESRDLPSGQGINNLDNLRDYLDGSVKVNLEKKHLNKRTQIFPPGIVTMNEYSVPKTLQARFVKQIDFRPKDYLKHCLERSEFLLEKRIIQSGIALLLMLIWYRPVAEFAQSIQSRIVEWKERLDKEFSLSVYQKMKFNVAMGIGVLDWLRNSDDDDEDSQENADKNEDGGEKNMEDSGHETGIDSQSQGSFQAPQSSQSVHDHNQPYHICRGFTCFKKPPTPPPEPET

T4 sequence (Q79MP6 whole entry): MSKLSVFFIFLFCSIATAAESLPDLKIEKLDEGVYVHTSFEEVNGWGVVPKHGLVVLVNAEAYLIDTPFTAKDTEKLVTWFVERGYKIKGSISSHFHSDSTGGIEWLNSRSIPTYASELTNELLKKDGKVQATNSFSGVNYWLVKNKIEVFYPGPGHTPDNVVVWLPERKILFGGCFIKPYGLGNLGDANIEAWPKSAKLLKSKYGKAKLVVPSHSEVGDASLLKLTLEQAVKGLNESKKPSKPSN
T2 sequence (P65502 whole entry): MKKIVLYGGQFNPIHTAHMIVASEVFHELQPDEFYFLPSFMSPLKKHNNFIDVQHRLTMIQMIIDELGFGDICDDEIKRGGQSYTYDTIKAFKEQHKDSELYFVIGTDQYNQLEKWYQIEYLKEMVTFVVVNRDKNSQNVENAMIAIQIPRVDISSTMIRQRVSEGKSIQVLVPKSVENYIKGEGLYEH
Beta-lactamase (Salmonella choleraesuis (strain SC-B67), UniProt Q5J463), sequence (Q5J463 whole entry): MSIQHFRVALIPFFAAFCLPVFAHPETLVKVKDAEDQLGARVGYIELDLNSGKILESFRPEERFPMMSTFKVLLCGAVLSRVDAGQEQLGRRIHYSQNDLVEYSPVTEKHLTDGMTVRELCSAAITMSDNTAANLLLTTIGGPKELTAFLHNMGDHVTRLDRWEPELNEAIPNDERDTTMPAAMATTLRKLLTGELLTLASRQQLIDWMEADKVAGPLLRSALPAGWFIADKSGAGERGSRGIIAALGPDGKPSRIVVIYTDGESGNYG
T8 sequence (P49327 whole entry, the tested form may be a part): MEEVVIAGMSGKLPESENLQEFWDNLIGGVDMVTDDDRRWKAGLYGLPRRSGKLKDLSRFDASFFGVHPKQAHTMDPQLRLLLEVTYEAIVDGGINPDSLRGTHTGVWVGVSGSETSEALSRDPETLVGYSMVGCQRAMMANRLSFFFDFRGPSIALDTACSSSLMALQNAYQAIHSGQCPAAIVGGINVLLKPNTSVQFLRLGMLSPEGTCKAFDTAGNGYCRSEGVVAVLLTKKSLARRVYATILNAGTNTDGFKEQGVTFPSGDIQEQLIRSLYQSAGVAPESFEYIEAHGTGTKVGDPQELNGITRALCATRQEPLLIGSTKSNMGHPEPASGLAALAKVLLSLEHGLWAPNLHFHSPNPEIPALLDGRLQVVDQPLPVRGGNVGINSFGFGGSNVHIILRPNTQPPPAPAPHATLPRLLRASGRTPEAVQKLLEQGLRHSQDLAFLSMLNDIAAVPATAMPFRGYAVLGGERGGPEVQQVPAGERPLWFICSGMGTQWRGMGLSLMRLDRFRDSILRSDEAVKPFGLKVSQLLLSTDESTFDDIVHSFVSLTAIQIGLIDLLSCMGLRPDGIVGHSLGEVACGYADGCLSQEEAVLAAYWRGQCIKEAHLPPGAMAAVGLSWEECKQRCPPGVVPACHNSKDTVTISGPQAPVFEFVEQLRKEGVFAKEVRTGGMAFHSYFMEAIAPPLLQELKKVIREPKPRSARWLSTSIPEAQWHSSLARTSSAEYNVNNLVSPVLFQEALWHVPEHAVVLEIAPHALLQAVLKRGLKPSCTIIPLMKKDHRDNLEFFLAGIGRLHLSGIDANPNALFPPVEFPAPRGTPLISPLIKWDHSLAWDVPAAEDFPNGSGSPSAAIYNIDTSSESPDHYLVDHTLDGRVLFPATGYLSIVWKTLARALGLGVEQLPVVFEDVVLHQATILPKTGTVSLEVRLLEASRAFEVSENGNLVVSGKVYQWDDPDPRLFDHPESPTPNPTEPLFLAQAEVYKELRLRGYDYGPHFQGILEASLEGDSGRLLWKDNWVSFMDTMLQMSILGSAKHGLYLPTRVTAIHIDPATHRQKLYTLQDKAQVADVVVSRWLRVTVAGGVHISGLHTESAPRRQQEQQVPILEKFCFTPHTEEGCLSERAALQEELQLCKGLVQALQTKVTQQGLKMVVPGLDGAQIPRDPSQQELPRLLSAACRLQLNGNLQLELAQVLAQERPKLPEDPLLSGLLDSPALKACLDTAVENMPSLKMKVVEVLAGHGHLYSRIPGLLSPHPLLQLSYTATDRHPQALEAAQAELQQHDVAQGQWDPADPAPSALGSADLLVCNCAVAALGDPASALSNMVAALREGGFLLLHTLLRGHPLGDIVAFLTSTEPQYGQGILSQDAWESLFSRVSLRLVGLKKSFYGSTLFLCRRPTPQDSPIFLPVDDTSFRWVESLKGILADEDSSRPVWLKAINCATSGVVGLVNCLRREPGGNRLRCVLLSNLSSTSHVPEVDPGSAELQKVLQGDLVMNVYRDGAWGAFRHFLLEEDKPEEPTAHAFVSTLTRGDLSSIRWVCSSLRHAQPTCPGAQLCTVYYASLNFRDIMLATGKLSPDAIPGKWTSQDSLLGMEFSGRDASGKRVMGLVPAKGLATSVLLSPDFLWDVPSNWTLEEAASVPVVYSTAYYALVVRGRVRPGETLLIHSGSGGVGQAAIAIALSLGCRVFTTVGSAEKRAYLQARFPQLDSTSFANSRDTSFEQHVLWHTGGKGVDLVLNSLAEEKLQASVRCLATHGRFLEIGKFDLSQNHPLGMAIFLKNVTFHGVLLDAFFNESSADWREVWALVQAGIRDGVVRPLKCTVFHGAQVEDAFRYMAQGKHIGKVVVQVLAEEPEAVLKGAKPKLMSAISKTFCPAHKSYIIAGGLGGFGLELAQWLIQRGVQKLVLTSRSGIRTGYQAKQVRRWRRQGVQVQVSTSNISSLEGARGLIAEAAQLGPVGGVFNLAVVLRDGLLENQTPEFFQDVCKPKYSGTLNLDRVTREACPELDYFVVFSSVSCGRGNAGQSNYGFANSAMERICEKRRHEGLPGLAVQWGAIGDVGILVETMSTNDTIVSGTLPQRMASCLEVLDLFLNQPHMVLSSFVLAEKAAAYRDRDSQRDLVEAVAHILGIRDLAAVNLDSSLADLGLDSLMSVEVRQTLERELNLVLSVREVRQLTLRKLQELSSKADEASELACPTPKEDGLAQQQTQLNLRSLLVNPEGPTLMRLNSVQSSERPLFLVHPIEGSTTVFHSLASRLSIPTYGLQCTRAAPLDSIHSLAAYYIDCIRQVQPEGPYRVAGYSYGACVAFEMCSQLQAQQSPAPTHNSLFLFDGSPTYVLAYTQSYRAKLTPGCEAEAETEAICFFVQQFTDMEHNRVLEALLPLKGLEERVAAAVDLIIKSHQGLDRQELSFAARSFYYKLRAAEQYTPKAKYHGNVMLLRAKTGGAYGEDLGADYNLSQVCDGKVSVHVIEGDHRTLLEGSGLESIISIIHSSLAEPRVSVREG
Disintegrin and metalloproteinase domain-containing protein 17, sequence (P78536 whole entry, the tested form may be a part): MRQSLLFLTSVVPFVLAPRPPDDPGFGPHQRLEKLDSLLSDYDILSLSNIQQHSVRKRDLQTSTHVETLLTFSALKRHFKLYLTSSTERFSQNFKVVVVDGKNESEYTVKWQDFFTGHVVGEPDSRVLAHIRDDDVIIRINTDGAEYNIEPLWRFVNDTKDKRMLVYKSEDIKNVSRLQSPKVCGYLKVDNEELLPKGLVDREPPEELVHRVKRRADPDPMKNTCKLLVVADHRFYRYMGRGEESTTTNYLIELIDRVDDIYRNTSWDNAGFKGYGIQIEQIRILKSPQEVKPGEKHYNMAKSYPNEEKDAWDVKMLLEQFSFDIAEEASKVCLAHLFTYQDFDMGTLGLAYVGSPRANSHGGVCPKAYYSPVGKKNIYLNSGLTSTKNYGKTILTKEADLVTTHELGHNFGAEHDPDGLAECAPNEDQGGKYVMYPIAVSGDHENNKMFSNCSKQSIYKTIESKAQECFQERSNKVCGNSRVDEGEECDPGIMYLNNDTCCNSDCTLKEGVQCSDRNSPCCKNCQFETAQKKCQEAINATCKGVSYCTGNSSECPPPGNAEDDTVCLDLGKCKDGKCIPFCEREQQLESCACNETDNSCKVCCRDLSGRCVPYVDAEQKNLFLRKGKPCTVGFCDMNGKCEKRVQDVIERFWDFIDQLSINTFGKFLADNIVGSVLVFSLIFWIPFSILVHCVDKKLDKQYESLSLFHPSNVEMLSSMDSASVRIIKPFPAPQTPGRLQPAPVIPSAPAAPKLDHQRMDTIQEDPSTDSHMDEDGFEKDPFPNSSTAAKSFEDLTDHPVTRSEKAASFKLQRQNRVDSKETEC

## O=C(CCCCn1c(=O)c2ccccc2n(Cc2ccc(F)cc2Cl)c1=O)NCc1ccco1
[1]
  IC50: 19.4 µM (active)
[2]
  IC50: > 20 µM (inactive)
[3]
  EC50: > 53 µM (inactive)

## COc1ccc(S[C@@H](CCN2CC[C@H](C)CCC2=O)c2ccccc2)cc1
[4]
  IC50: > 69.5 µM (inactive)
[5]
  IC50: 19.3 µM (inactive)

## O=S(=O)(Nc1nccs1)c1ccc(Nc2nnc(-c3ccccc3)c3ccccc23)cc1
[6]
  EC50: 1.06 µM (active)
Streptococcus
  EC50: 3.67 µM (active)
[7]
  IC50: 5.9 µM (active)
[8]
  IC50: 29.2 µM (active)

## Cc1ccc(NC(=O)c2ccccc2NS(=O)(=O)c2ccc(F)cc2)cc1S(=O)(=O)N1CCCCC1
[1]
  IC50: 2.59 µM (active)
[2]
  IC50: 6.13 µM (active)
[3]
  EC50: 4.33 µM (active)

## CCOC(=O)COc1ccc2c(c1)C(=O)CC(C)(C)O2
[9]
  IC50: 1.55 µM (active)

## Cc1cc(C)n(-c2nc(SCC(=O)O)c3c4c(sc3n2)COC(C)(C)C4)n1
Beta-lactamase [10]
  IC50: > 59.6 µM (inactive)
Beta-lactamase [11]
  IC50: > 59.6 µM (inactive)
Streptokinase A
  EC50: > 150 µM (not active)
[6]
  EC50: 8.1 µM (active)
Beta-lactamase [12]
  IC50: > 59.6 µM (inactive)
Streptococcus
  EC50: > 150 µM (not active)

## CCCCC1=CC2=CC(=O)C(C)(OC(=O)CCc3ccccc3)C(=O)C2=CO1 (stereo not drawn)
[13]
  EC50: 41.6 µM (active)
[14]
  EC50: > 150 µM (not active)
[7]
  IC50: 8.81 µM (active)
[8]
  IC50: 19.8 µM (active)

## O=[N+]([O-])c1ccc(-c2ccccc2)c([As](=O)(O)O)c1
Beta-lactamase [10]
  IC50: > 59.6 µM (inactive)
Beta-lactamase [11]
  IC50: > 59.6 µM (inactive)
Beta-lactamase [12]
  IC50: > 59.6 µM (inactive)

## O=C1S/C(=C\c2ccc(O)c([N+](=O)[O-])c2)C(=O)N1Cc1cccc([N+](=O)[O-])c1
Fatty acid synthase [15]
  IC50: 3.83 µM (active)
[16]
  EC50: 4.39 µM (active)
[1]
  IC50: 4.71 µM (active)
HEK293 [17]
  IC50: > 20 µM (inactive)
HEK293 [18]
  IC50: 17.1 µM (active)
[2]
  IC50: > 20 µM (inactive)
Fatty acid synthase [19]
  IC50: 3.73 µM (active)
HEK293 [20]
  EC50: 4.33 µM (active)
[3]
  EC50: > 53 µM (inactive)
HEK293 [21]
  IC50: 7.53 µM (active)
HEK293 [22]
  IC50: 5.79 µM (inactive)

## Cc1ccccc1N=C(NOCc1ccc(Cl)cc1Cl)c1nonc1N
[23]
  AC50: 3.53 µM (active)
[24]
  IC50: 13.3 µM (inactive)

## CCOc1cc(/C=N/NC(=O)CSc2cccc3cccnc23)ccc1O
[25]
  IC50: 34.2 µM (active)
[26]
  AC50: 90 µM (active)
Large T antigen
  IC50: 7.45 µM (active)

## CN(C)/C=N/c1nc2nccc(-c3cccc(Cl)c3)n2n1
[9]
  IC50: 1.15 µM (active)
